Results on two compounds are retold here after ChEMBL document CHEMBL1148954, “Two new cytotoxic tetracyclic tetraterpenoids from the soft coral Sarcophyton tortuosum” (J Nat Prod, 2004).

One experiment concerns P388. As to the kind of experiment: Cytotoxicity against mouse P388 cells by MTT assay. It is filed as functional, cell-based.
The nature of experiment [1]: Cytotoxicity against human CNE2 cells by MTT assay. It is filed as functional, cell-based. The settings on record: CNE-2. (Formazan colour is commonly taken as a measure of viable cells.)

Values after ≈ are worked out from the molar mass of the structure shown.

As to `COC(=O)[C@@]12CC(=O)[C@@H](C(C)C)CC(=O)[C@@H](C)CCC[C@@H](C)CC(=O)[C@@H]1CC(C)=C1[C@H]2/C=C(\C)CC[C@H]2O[C@@H](CC=C2C)[C@](C)(O)C[C@@H]1O` [METHYL TORTUOATE A], the half-inhibitory concentration (IC50) (as a rule, the concentration needed to halve the response being measured) in the experiment with P388 was 3.5 mg/L (≈ 5.12 µM); in experiment [1], 22.7 mg/L (≈ 33.2 µM).
The like results for `COC(=O)[C@@]12CC(=O)[C@@H](C(C)C)CC(=O)[C@@H](C)CCC[C@@H](C)CC(=O)[C@@H]1CC(C)=C1[C@@H]3C[C@@](C)(O)[C@H](CC[C@@H](C)C(=O)CC/C(C)=C/[C@H]12)O3` [METHYL TORTUOATE B] were, in that order, 5 mg/L (≈ 7.32 µM) and 24.7 mg/L (≈ 36.2 µM).
